Measurements as given in patent publication US20250017964A1, “ENGINEERING OR INDUCING PDGF AND/OR PDGFR SIGNALING TO ENHANCE NK CELL THERAPY” (City of Hope, priority 2021, published 2025).

How the values were obtained:
Assay type in all cases: cell-based, human
PDGF-D promoter = experiment: ChIP-qPCR, binding of p65 to the PDGF-D promoter; details: IL-15-stimulated NK cells (1 h); not in resting NK cells
Protocol: FIGS. 5A-5J. IL-15 induces PDGF-D expression in an autocrine manner. (A) mRNA levels of PDGFA, PDGFB, PDGFC, and PDGF-D in T cells, B cells, and NK cells were analyzed using the BioGPS online tool. (B) mRNA levels of PDGFA, PDGFB, PDGFC, and PDGF-D in T cells, B cells, and NK cells were examined by qPCR (n=10). (C) Primary NK cells were treated with IL-15 (10 ng/ml) for the indicated times. mRNA levels of PDGF-D were examined by qPCR (n=3). (D-E) Representative dot plots and percentages of PDGF-D levels in NK cells after IL-15 (50 ng/ml) treatment for 24 h. Resting NK cells were used as control (n=5). […] (I-J) Binding of p65 to the PDGF-D promoter in IL-15 treated (I) or resting NK cells (J) as determined by ChIP-qPCR (n=3). Data represent three independent experiments. Data shown are means±SD. NS, not significant, *P<0.05, **P<0.01, ***P<0.001, and ****P<0.0001.
Primary NK cells were treated with IL-15 for 1 h. The cells were cross-linked in 1% formaldehyde and quenched with glycine buffer. ChIP assays were carried out using a Pierce Magnetic ChIP Kit (Cat No.26157, Thermo Scientific) according to the manufacturer's instructions. Digested chromatin was incubated overnight with a p65 ChIP-grade antibody (#8242, Cell Signaling Technology) or IgG control antibody (#3900, Cell Signaling Technology). The enriched chromatin was analyzed by qPCR using the following primers: […]

NK cells [1] = experiment: NK cell expansion in vitro, cell counts by trypan blue exclusion; details: 7 days
NK cells [2] = experiment: NK cell effector functions and surface receptors, flow cytometry; details: IL-15-primed NK cells (10 ng/ml), PDGF ligand 50 ng/ml, 48 h
Protocol: FIGS. 3A-3K. […] (A-E) Primary NK cells were treated with IL-15 (10 ng/ml) in the presence of PDGF-B (50 ng/ml) or PDGF-D (50 ng/ml) for 48 h. Expression levels of IFN-γ, TNF-α, granzyme B, perforin, and CD107a were examined by flow cytometry (n=5). (F-K) Primary NK cells were treated with IL-15 (10 ng/ml) plus PDGF-D (50 ng/ml) in the presence of anti-NKp44 (10 βg/ml) or anti-PDGFRβ (10 μg/ml) for 48 h. Expression levels of IFN-γ, TNF-α, and CD107a were examined by flow cytometry (n=3). Data represent three independent experiments. Data shown are means±SD. NS, not significant. *P<0.05, **P<0.01, and ***P<0.001.
FIGS. 10A-10K. […] (A-E) Representative histograms and summary data of IFN-γ, TNF-α, granzyme B, perforin, and CD107a in PDGFRβ^+ and PDGFRβ^− NK cells. Cells were gated on CD56^+PDGFRβ^+ or CD56^+PDGFRβ^− cells. (F) PDGFRβ^+ and PDGFRβ^− NK cells were sorted by flow cytometry and co-cultured with ^51 Cr-labeled K562 cells in a 96-well V-bottom plate at ratios of 5:1, 2.5:1, or 1.25:1 for 4 h at 37° C. in a 5% CO2 incubator. The supernatant was harvested and analyzed using a microbeta scintillation counter (n=3). […]
Cells were stained with the indicated cell-surface markers and/or fixed/permeabilized using a Fixation/Permeabilization Kit (eBioscience). […] Data were analyzed using NovoExpress software (Agilent Technologies).

| Substance | p65 enrichment at the PDGF-D promoter versus normal IgG control (PDGF-D promoter) | expansion of primary NK cells transduced with PDGFRβ (NK cells [1]; IL-2 50 U/ml and PDGF-D 50 ng/ml) | NK cell expansion (NK cells [1]; primary NK cells, IL-15 10 ng/ml and PDGF-D 50 ng/ml) | expression of IFN-γ, TNF-α, perforin, and CD107a (NK cells [2]) | expression of granzyme B (NK cells [2]) |
| --- | --- | --- | --- | --- | --- |
| IL-15: recombinant human IL-15 (200-15); recombinant murine IL-15 in the mouse NK cell test | significantly enriched |  |  |  |  |
| PDGF-D: recombinant human PDGF-DD (1159-SB-025), R&D Systems |  | enhanced the expansion | promoted cell expansion | induced | not granzyme B |
